Assay results published in patent EP4714948A1, “COMPOUND USED FOR EGFR PROTEIN DEGRADATION, AND USE THEREOF” (TYK Medicines, Inc., priority 2023, dated 2024).

Columns and labels:
[1] = Pharmacokinetic test on male SD rats; assay type: in vivo; conditions: gavage (p.o.), 10 mg/kg, plasma; for AUC(0-inf) / AUC(0-t) / Cmax / MRT last / Tmax: rat, po
Protocol: Healthy adult SD rats, male, a total of 3, 6-8 weeks old; Weighing 200-300 grams.
EDTA-Na2 anticoagulant: 11.2 g of EDTA-Na2 was weighted and placed into a reagent bottle. 100 mL of physiological saline was added and the mixture was shaken until completely dissolved. After preparation, the solution was aliquoted into 1.5 mL centrifuge tubes, each containing approximately 20 uL, for use in whole blood sample collection.
Approximately 10 mg of the test sample was accurately weighed. DMSO accounting for 10% of the total volume was added to dissolve the sample. Subsequently, 0.5% MC solvent accounting for 90% of the total volume was slowly added while stirring. The mixture was sonicated and vortexed evenly, and a visually homogeneous preparation solution was obtained, with a concentration of 1 mg/mL. This solution should be freshly prepared immediately before use.
0.2 mL of the sample was pipetted into a 1.5 mL centrifuge tube and stored at -80°C for concentration analysis of the dosing solution.
Animals were kept in rat cages and fasted for no less than 10 hours on the day before the experiment, but were allowed to drink water. The animals were individually weighed and marked on their tails. Prior to dosing, blank blood samples were collected from each animal via the tail vein.
• Administration route: gavage (p.o.) • Dosage concentration: 1mg/ml • Dosage: 10 mg/kg • Dosage volume: 10 mL/kg
Operation process: The rat was grasped with a left hand protected by a bite-resistant glove and held in an upright position. The gavage needle was inserted through the mouth and advanced towards the pharynx. The needle was advanced gently, ensuring no significant resistance was felt. The drug was then injected into the stomach.
At 0.5 h, 1 h, 2 h, 4 h, 6 h, 8 h, 12 h, and 24 h post-dosing, 0.1-0.2 mL of whole blood was collected from each test animal into EDTA-Na2 anticoagulant tubes. The tubes were mixed by inverting 3-4 times. The samples were centrifuged at 2000 × g and 4 °C for 5 minutes. The upper plasma layer was to separated, promptly transferred to -80 °C for storage until analysis. The blood was collected via tail vein.
A quantitative detection method for the test compound was established using a Shimadzu liquid chromatography system and a Triple Quad™ 6500+ AB mass spectrometry (MS) system. This method was used to analyze the concentration of the parent drug in plasma. The variation of the analysis results was controlled using quality control (QC) samples, and the accuracy of the QC samples was required to be within the range of 80%-120%.
The main pharmacokinetic parameters were calculated using the non-compartmental model (NCA) with the WinNonlin Phoenix software. These parameters include: area under the concentration-time curve (AUC(0-t) and AUC(0-∞)), elimination half-life (T1/2), maximum plasma concentration (Cmax), and time to reach maximum plasma concentration (Tmax), etc.

H1975 = experiment: Cell antiproliferative assay (CTG, 72 h); assay type: cell-based; conditions: Homo sapiens, NCI-H1975, H1975 (EGFR T790M/L858R)
Protocol: (§1) H1975 has EGFR T790M/L858R dual mutation, PC-9 has EGFR exon 19 deletion mutation, and HCC827 has exon 19 deletion mutation. CellCounting Lite 2.0, Trypsin EDTA, 37 °C CO2 incubator, cell counter, EnVision Serial No.1050454.
(§2) • (A) Trypsin EDTA was used to digest log-phase cells, medium was added to terminate the digestion reaction, and a cell suspension was prepared by blowing and mixing with a pipette. • (B) Cell concentration was determined using Vi-cell, and a suspension of 15,000-25,000 cells per milliliter was made depending on the purpose of the experiment and the characteristics of the cells. • (C) After the cell suspension was ready, it was gently mixed and each well was added with 100µL so that the cell density to be tested was 1,500- 2,500 per well.
(§3) • A) About 2 mg of compound was weighed, and the volume of DMSO required was calculated according to the formula: compound mass (mg)*compound purity (%)/compound molecular weight*1000. • (B) The inoculated cell culture plates were incubated in an incubator. About 24 hours later, compounds were added at gradient concentrations. • (C) 10mM of compound reservoir solution was diluted to […] with medium, and […] of the compound solution was added sequentially to the second column of the deep-well plate, and […] of medium containing 0.5% DMSO was added to the third to eleventh columns. • D) Gradient dilution: 125 µl of solution was pipetted from the second column and added to the third column, after mixing; another 125 µl of solution was pipetted from the third column and added to the fourth column, and the operation was repeated until the tenth column. • (E) 25 µl of compound was pipetted from the deep-well plate into a 96-well culture plate using a multichannel pipette, and each compound was run in triplicate on the 96-well plate. A 1:4 concentration gradient was established on the 96-well plate, with a final highest concentration of 10,000 nM.
(§4) • (A) 96-well plates were incubated in an incubator for 72 h. The effect of the compounds was observed under an inverted microscope. • (B) 25 µl of CTG solution was added to each well. The plate was incubated on a shaker for 10 minutes and the OD value of each well was read.
(§5) The survival rate ( % Cell Viability) was calculated using the following formula: %Cell Viability = 100% × (Lum_Sample−Lum_LC)/(Lum_HC−Lum_LC) [formula] • Lum_HC: Cell reading of 0.1% DMSO control group • Lum_Sample: Cell readings of compound addition group • Lum_LC: Reading of blank medium • IC50 values were obtained by curve fitting using GraphPad Prism 8 software.

HCC827 = experiment: Cell antiproliferative assay (CTG, 72 h); assay type: cell-based; conditions: Homo sapiens, HCC827 (exon 19 deletion)
Protocol: as §1, §2, §3, §4, §5

PC-9 = experiment: Cell antiproliferative assay (CTG, 72 h); assay type: cell-based; conditions: Homo sapiens, PC-9 (EGFR exon 19 deletion)
Protocol: as §1, §2, §3, §4, §5

[2] = target: EGFR in BAF3-LTC (Baf3-L858R-T780M-C797S) (Homo sapiens, UniProt P00533, C797S/L858R/T790M); experiment: EGFR PROTAC HTRF experiment (total EGFR degradation); assay type: cell-based; conditions: BAF3-LTC cells, 16 hours incubation
[3] = target: EGFR in BAF3-DTC (Baf3-19del-T780M-C797S) (Homo sapiens, UniProt P00533, C797S/DEL746-750/T790M); experiment: as above; assay type: cell-based; conditions: BAF3-DTC cells, 16 hours incubation
EGFR in BAF3-DTC (Baf3-19del-T780M-C797S), sequence (P00533 with tags, fused parts or gaps DEL746-750/T790M/C797S): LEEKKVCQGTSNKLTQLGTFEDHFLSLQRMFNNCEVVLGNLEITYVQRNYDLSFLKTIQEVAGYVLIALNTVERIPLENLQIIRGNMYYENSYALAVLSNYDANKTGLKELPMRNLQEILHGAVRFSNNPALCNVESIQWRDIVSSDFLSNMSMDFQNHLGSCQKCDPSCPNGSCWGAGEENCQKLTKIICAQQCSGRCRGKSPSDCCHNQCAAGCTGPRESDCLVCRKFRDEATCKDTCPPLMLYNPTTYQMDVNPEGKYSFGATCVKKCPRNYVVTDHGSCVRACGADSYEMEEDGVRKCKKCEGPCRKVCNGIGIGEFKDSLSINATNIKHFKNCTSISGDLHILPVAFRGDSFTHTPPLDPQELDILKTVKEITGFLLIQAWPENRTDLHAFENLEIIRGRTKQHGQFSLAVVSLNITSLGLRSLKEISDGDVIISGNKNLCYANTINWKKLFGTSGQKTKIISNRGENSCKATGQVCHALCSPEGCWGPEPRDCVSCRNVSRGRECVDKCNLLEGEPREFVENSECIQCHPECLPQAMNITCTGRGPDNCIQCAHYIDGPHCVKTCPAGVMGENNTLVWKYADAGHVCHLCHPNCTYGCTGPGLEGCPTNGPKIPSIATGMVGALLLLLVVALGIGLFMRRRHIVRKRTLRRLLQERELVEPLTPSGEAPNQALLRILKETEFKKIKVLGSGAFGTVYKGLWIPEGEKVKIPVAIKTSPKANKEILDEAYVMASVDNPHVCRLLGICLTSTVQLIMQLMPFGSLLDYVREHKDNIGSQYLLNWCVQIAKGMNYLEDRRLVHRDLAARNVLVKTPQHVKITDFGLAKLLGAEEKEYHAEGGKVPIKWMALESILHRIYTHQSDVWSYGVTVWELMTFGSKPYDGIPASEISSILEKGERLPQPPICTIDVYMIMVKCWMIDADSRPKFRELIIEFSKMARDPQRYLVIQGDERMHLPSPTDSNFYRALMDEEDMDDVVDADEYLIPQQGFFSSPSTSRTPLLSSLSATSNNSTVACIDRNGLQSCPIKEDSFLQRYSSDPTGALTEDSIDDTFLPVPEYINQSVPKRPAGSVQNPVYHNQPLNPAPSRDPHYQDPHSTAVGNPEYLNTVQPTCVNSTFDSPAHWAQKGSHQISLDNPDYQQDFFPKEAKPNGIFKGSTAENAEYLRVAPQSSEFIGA

EGFR in BAF3-LTC (Baf3-L858R-T780M-C797S), sequence (P00533 25-1210 T790M/C797S/L858R): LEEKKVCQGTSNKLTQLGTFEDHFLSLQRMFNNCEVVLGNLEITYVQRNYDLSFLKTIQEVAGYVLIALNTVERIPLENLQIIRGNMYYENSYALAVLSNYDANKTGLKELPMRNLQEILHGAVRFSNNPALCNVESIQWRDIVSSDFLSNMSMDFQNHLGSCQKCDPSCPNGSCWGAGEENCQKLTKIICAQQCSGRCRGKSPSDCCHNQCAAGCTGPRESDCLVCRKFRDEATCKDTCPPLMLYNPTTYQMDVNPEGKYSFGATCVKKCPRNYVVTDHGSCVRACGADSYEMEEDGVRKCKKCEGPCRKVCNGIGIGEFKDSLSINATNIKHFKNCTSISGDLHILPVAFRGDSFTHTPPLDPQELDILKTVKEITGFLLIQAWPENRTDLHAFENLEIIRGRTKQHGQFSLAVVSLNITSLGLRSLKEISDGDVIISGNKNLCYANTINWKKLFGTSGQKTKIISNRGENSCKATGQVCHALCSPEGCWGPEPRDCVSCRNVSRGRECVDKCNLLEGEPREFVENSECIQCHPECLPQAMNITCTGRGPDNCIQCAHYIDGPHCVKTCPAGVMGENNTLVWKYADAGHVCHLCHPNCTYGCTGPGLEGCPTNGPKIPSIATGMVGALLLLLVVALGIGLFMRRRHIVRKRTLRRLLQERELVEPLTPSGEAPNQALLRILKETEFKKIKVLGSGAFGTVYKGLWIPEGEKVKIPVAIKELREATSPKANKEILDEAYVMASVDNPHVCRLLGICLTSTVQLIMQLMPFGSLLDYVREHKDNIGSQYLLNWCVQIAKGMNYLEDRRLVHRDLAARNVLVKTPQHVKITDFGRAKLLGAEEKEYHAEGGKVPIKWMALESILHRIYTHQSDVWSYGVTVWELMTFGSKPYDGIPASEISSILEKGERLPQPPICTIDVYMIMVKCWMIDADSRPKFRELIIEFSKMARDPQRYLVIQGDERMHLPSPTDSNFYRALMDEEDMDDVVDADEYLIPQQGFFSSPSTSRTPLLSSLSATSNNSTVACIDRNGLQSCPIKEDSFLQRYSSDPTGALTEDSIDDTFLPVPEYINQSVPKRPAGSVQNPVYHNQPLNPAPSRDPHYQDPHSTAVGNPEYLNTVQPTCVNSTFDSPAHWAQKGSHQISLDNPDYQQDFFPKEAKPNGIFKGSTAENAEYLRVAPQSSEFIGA

SMILES | HL_ [1] | AUC(0-inf) [1] | AUC(0-t) [1] | Cmax [1] | MRT last [1] | Tmax [1] | IC50 (H1975) | IC50 (HCC827) | IC50 (PC-9) | DC50 [2] | Dmax [2] | DC50 [3] | Dmax [3]
CCc1cc(Nc2ncc(Cl)c(Nc3ccccc3C(=O)NC)n2)c(OC)cc1N1CCN(C(=O)CN2CCC(c3ccc(NC4CCC(=O)NC4=O)cc3C(F)(F)F)CC2)CC1 (centres unmarked) [Compound T-074] | 7.97 h | 20.2 µg·h/mL | 16.9 µg·h/mL | 1.12 µg/mL | 9.66 h | 5.33 h |  |  |  |  |  |  | 
C=Cc1cc(Nc2ncc(Cl)c(Nc3ccccc3C(=O)NC)n2)c(OC)cc1N1CCN(C(=O)CN2CCC(c3ccc(NC4CCC(=O)NC4=O)cc3)CC2)CC1 (centres unmarked) [Compound T-003] |  |  |  |  |  |  | 0.01 to 0.1 µM | 0.01 to 0.1 µM | 0.1 to 1 µM | 0.01 to 0.1 µM | 70 to 100% | 0.01 to 0.1 µM | 70 to 100%
CCc1cc(Nc2ncc(Cl)c(Nc3ccccc3C(=O)NC)n2)c(OC)cc1N1CCN(C(=O)CN2CCC(c3ccc(NC4CCC(=O)NC4=O)cc3)CC2)[C@@H](C)C1 (some centres unmarked) [Compound T-078] | 5.45 h | 10.2 µg·h/mL | 8.6 µg·h/mL | 0.714 µg/mL | 9.06 h | 6 h |  |  |  |  |  |  | 
CCc1cc(Nc2ncc(Br)c(Nc3ccccc3C(=O)NC)n2)c(OC)cc1N1CCN(C(=O)CN2CCC(c3ccc4c(N5CCC(=O)NC5=O)nn(C)c4c3)C(F)(F)C2)CC1 (centres unmarked) [Compound T-014] | 3.37 h | 4.56 µg·h/mL | 4.51 µg·h/mL | 0.721 µg/mL | 5.88 h | 3.33 h |  |  |  | ≤ 0.01 µM | 70 to 100% | ≤ 0.01 µM | 70 to 100%
CNC(=O)c1ccccc1Nc1nc(Nc2cc(C)c(N3CCN(C(=O)CN4CCC(c5ccc6c(N7CCC(=O)NC7=O)nn(C)c6c5)C(F)(F)C4)CC3)cc2OC)ncc1Cl (centres unmarked) [Compound T-049] |  |  |  |  |  |  | < 0.01 µM | 0.01 to 0.1 µM | 0.1 to 1 µM |  |  |  | 
CCc1cc(Nc2ncc(Cl)c(Nc3ccccc3C(=O)NC)n2)c(OC)cc1N1CCN(C(=O)CN2CCC(c3ccc(NC4CCC(=O)NC4=O)cc3)CC2)[C@H](C)C1 (some centres unmarked) [Compound T-079] | 4.02 h | 7.99 µg·h/mL | 7.72 µg·h/mL | 0.673 µg/mL | 4.67 h | 4.67 h | 0.01 to 0.1 µM | 0.1 to 1 µM | 0.1 to 1 µM |  |  |  | 
CNC(=O)c1ccccc1Nc1nc(Nc2ccc(N3CCN(C(=O)CN4CCC(c5ccc6c(N7CCC(=O)NC7=O)nn(C)c6c5)C(F)(F)C4)CC3)cc2OC)ncc1Cl (centres unmarked) [Compound T-047] |  |  |  |  |  |  | 0.01 to 0.1 µM | 0.1 to 1 µM | 0.1 to 1 µM |  |  |  | 
CCc1cc(Nc2ncc(Cl)c(Nc3ccccc3C(=O)NC)n2)c(OC)cc1N1CCN(C(=O)CN2CCC(c3ccc(NC4CCC(=O)NC4=O)cc3C)CC2)CC1 (centres unmarked) [Compound T-090] |  |  |  |  |  |  |  |  |  | 0.01 to 0.1 µM | 70 to 100% | 0.1 to 1 µM | 70 to 100%
CNC(=O)c1ccccc1Nc1nc(Nc2cc(C)c(N3CCN(C(=O)CC4(O)CCN(c5ccc6c(N7CCC(=O)NC7=O)nn(C)c6c5)CC4)CC3)cc2OC)ncc1Cl [Compound T-086] |  |  |  |  |  |  | 0.1 to 1 µM | 0.1 to 1 µM | 0.1 to 1 µM |  |  |  | 
CCc1cc(Nc2ncc(Cl)c(Nc3ccccc3C(=O)NC)n2)c(OC)cc1N1CC2CCC(C1)N2C(=O)CN1CCC(c2ccc(NC3CCC(=O)NC3=O)cc2)CC1 (centres unmarked) [Compound T-109] |  |  |  |  |  |  | 0.01 to 0.1 µM | 0.01 to 0.1 µM | 0.01 to 0.1 µM | 0.01 to 0.1 µM | 50 to 70% | 0.01 to 0.1 µM | 50 to 70%
CCc1cc(Nc2ncc(Cl)c(Nc3ccccc3C(=O)NC)n2)c(OC)cc1N1CC2(CN(C(=O)CN3CCC(c4ccc(NC5CCC(=O)NC5=O)cc4)CC3)C2)C1 (centres unmarked) [Compound T-080] |  |  |  |  |  |  | < 0.01 µM | 0.01 to 0.1 µM | 0.01 to 0.1 µM | 0.01 to 0.1 µM | 70 to 100% | 0.01 to 0.1 µM | 70 to 100%
CCc1cc(Nc2ncc(Cl)c(Nc3ccccc3C(=O)NC)n2)c(OC)cc1N1CCN(C(=O)CN2CCC(c3ccc4c(N5CCC(=O)NC5=O)nn(C)c4c3)CC2)CC1 [Compound T-043] |  |  |  |  |  |  | < 0.01 µM | 0.01 to 0.1 µM | 0.1 to 1 µM |  |  |  | 
CCc1cc(Nc2ncc(Cl)c(Nc3ccccc3C(=O)NC)n2)c(OC)cc1N1CCN(C(=O)CN2CCC(c3c(F)cc(NC4CCC(=O)NC4=O)cc3F)CC2)CC1 (centres unmarked) [Compound T-068] |  |  |  |  |  |  |  |  |  | 0.01 to 0.1 µM | 70 to 100% | 0.01 to 0.1 µM | 70 to 100%
CCc1cc(Nc2ncc(Cl)c(Nc3ccccc3C(=O)NC)n2)c(OC)cc1N1CCN(C(=O)CN2CCC(c3ccc4c(N5CCC(=O)NC5=O)nn(C)c4c3)C(F)(F)C2)CC1 (centres unmarked) [Compound T-013] | 3.09 h | 6.73 µg·h/mL | 6.69 µg·h/mL | 0.899 µg/mL | 6.27 h | 4 h |  |  |  | ≤ 0.01 µM | 70 to 100% | 0.01 to 0.1 µM | 70 to 100%
CCc1cc(Nc2ncc(Cl)c(Nc3ccccc3C(=O)NC)n2)c(OC)cc1N1CCN(C(=O)CN2CCN(c3ccc4c(N5CCC(=O)NC5=O)nn(C)c4c3)CC2)CC1 [Compound T-045] |  |  |  |  |  |  | 0.1 to 1 µM | 0.1 to 1 µM | 0.1 to 1 µM |  |  |  | 
COc1cc(N2CCN(C(=O)CN3CCC(c4ccc(NC5CCC(=O)NC5=O)cc4)CC3)CC2)ccc1Nc1ncc(Cl)c(Nc2ccccc2C(C)=O)n1 (centres unmarked) [Control Compound 1, reference compound] | 3.47 h | 2.09 µg·h/mL | 2.06 µg·h/mL | 0.227 µg/mL | 7.32 h | 5.33 h |  |  |  |  |  |  | 
COc1cc(N2CCN(C(=O)CN3CCC(c4ccc(NC5CCC(=O)NC5=O)cc4)CC3)CC2)ccc1Nc1ncc(Cl)c(Nc2ccccc2-n2ccnn2)n1 (centres unmarked) [Compound T-007] |  |  |  |  |  |  | 0.01 to 0.1 µM | 0.1 to 1 µM | 0.1 to 1 µM | 0.1 to 1 µM | 70 to 100% |  | 
COc1cc(N2CCN(C(=O)CN3CCC(c4ccc(NC5CCC(=O)NC5=O)cc4)CC3)CC2)ccc1Nc1ncc(Cl)c(Nc2ccccc2-c2ncc[nH]2)n1 (centres unmarked) [Compound T-011] |  |  |  |  |  |  | 0.01 to 0.1 µM | 0.1 to 1 µM | 0.1 to 1 µM | 0.1 to 1 µM | 50 to 70% |  | 
